From US12286632B2, “Rationally-designed synthetic peptide shuttle agents for delivering polypeptide cargos from an extracellular space to the cytosol and/or nucleus of a target eukaryotic cell, uses thereof, methods and kits relating to same” (Feldan Bio Inc., priority 2016, dated 2025)

What was measured:
[1] = in vitro; conditions: human, HeLa cells
[2] = tested on: HeLa cells; experiment: Transfection plasmid surrogate assay for delivered CRISPR/Cas9-NLS complex (mCherry/GFP fluorescence); assay type: cell-based, Human; conditions: shuttle 35 μM; 24 and 48 hours post-transduction
Excerpt: This assay enables one to visually identify cells that have been successfully delivered an active […]as9 complex. […] Transfection of the cells with the expression plasmid results in mCherry™ expression, but no GFP expression (FIG. 39B). […] Successful transduction of an active CRISPR/Cas9 complex results in the CRISPR/Cas9 complex cleaving the plasmid DNA at the STOP codon (FIG. 39C). In a fraction of the cells, random non-homologous DNA repair of the cleaved plasmid occurs and results in removal of the STOP codon, and thus GFP expression and fluorescence (FIG. 39E).
On Day 1 of the transfection plasmid surrogate assay, DNA plasmids for different experimental conditions (250 ng) are diluted in DMEM (50 μL) in separate sterile 1.5-mL tubes, vortexed and briefly centrifuged. In separate sterile 1.5-mL tubes, Fastfect™ transfection reagent was diluted in DMEM (50 μL) with no serum and no antibiotics at a ratio of 3:1 (3 μL of Fastfect™ transfection reagent for 1 μg of DNA) and then quickly vortexed and briefly centrifuged. The Fastfect™/DMEM mixture was then added to the DNA mix and quickly vortexed and briefly centrifuged. The Fastfect™/DMEM/DNA mixture is then incubated for 15-20 min at room temperature, before being added to the cells (100 μL per well). The cells are then incubated at 37° C. and 5% CO2 for 5 h. […]

[3] = tested on: THP-1 cells; experiment: HOXB4-WT transduction: target gene mRNA by real-time PCR (Fold over control) and total RNA (ng/μL) as marker for cell viability; assay type: cell-based, human; conditions: for Total RNA in ng/μL (mean ± St. Dev): THP-1, serum
Method: Control and treated cells are transferred to separate sterile 1.5-mL tubes and centrifuged for 5 minutes at 300g. The cell pellets are resuspended in appropriate buffer to lyse the cells. RNAase-free 70% ethanol is then added followed by mixing by pipetting. The lysates are transferred to an RNeasy™ Mini spin column and centrifuged 30 seconds at 13000 RPM. After several washes with appropriate buffers and centrifugation steps, the eluates are collected in sterile 1.5-mL tubes on ice, and the RNA quantity in each tube is then quantified with a spectrophotometer. For DNase treatment, 2 μg of RNA is diluted in 15 μL of RNase-free water. 1.75 μL of 10X DNase buffer and 0.75 μL of DNase is then added, followed by incubation at 37° C. for 15 minutes. For reverse transcriptase treatment, 0.88 μL of EDTA […] is added, followed by incubation at 75° C. for 5 minutes. In a PCR tube, […] of DNase-treated RNA is mixed with 4 μL of iScript™ Reverse transcription Supermix (5X) and […] of nuclease-free water. The mix is incubated in a PCR machine with the following program: 5 min at 25° C., 30 min at 42° C. and 5 min at 85° C. Newly synthesized cDNA is transferred in sterile 1.5-mL tubes and diluted in 2 μL of nuclease-free water. 18 μL per well of a qPCR machine (CFX-96™) mix is then added in a PCR plate for analysis.
Briefly, THP-1 cells were plated at 30 000 cells/well one day before transduction. HOXB4-WT recombinant protein ([…]; Example 14.1) was co-incubated with different concentrations of His-CM18-PTD4 ([…]) and then exposed to THP-1 cells for 2.5 hours in the presence of serum. The cells were subjected to real time-PCR analysis as described in Example 14.2 to measure the mRNA levels of a target gene as a marker for HOXB4 activity, which was then normalized to the target gene mRNA levels detected in the negative control cells (no treatment), to obtain a “Fold over control” value. Total RNA levels (ng/μL) were also measured as a marker for cell viability.
Briefly, THP-1 cells were plated at 30 000 cells/well one day before the first time course experiment. HOXB4-WT recombinant protein (1.5 μM; Example 14.1) was co-incubated with His-CM18-PTD4 (0.8 μM) and then exposed to THP-1 cells for 0, 2.5, 4, 24 or 48 hours in presence of serum. The cells were subjected to real time-PCR analysis as described in Example 14.2 to measure mRNA levels of a target gene as a marker for HOXB4 activity, which was then normalized to the target gene mRNA levels detected in the negative control cells (no treatment), to obtain a “Fold over control” value. Total RNA levels (ng/μL) were also measured as a marker for cell viability.
Briefly, THP-1 cells were plated at 30 000 cells/well one day before the first time course experiment. HOXB4-WT recombinant protein (0.3 μM; Example 14.1) was co-incubated with His-CM18-PTD4 (0.8 μM) and then exposed to THP-1 cells for 0, 0.5, 1, 2, 2.5, 3 or 4 hours in presence of serum. The cells were subjected to real time-PCR analysis as described in Example 14.2 to measure mRNA levels of a target gene as a marker for HOXB4 activity, which was then normalized to target gene mRNA levels detected in the negative control cells (no treatment), to obtain a “Fold over control” value. Total RNA levels (ng/μL) were also measured as a marker for cell viability.
Briefly, THP-1 cells were plated at 30 000 cells/well one day before the first time course experiment. HOXB4-WT recombinant protein (1.5 μM; Example 14.1) co-incubated with the shuttle agents His-CM18-PTD4, TAT-KALA, EB1-PTD4, His-C(LLKK)3C-PTD4 and His-CM18-PTD4-His at 0.8 μM, and then exposed to THP-1 cells for 2.5 hours in presence of serum. The cells were subjected to real time-PCR analysis as described in Example 14.2 to measure mRNA levels of a target gene as a marker for HOXB4 activity, which was then normalized to target gene mRNA levels detected in the negative control cells (no treatment), to obtain a “Fold over control” value. […]

CC[C@H](C)[C@H](NC(=O)[C@H](CCCCN)NC(=O)[C@H](CCCCN)NC(=O)[C@H](Cc1ccccc1)NC(=O)[C@H](CC(C)C)NC(=O)[C@H](CCCCN)NC(=O)[C@H](Cc1c[nH]c2ccccc12)NC(=O)[C@H](CCCCN)NC(=O)[C@H](Cc1c[nH]cn1)NC(=O)[C@H](Cc1c[nH]cn1)NC(=O)[C@H](Cc1c[nH]cn1)NC(=O)[C@H](Cc1c[nH]cn1)NC(=O)[C@H](Cc1c[nH]cn1)NC(=O)[C@@H](N)Cc1c[nH]cn1)C(=O)NCC(=O)N[C@@H](C)C(=O)N[C@H](C(=O)N[C@@H](CC(C)C)C(=O)N[C@@H](CCCCN)C(=O)N[C@H](C(=O)N[C@@H](CC(C)C)C(=O)N[C@H](C(=O)N[C@H](C(=O)NCC(=O)N[C@@H](Cc1ccc(O)cc1)C(=O)N[C@@H](C)C(=O)N[C@@H](CCCNC(=N)N)C(=O)N[C@@H](C)C(=O)N[C@@H](C)C(=O)N[C@@H](C)C(=O)N[C@@H](CCCNC(=N)N)C(=O)N[C@@H](CCC(N)=O)C(=O)N[C@@H](C)C(=O)N[C@@H](CCCNC(=N)N)C(=O)N[C@@H](C)C(=O)O)[C@@H](C)O)[C@@H](C)O)C(C)C)C(C)C [His-CM18-PTD4]
viability [1]: 63.2 ± 4.07% | GFP expression after CRISPR/Cas9-NLS cleavage of plasmid surrogate [2]: GFP fluorescence, the latter resulting from removal of the STOP codon by the transduced CRISPR/Cas9-NLS complex | target gene mRNA transcription after HOXB4-WT transduction (in words) ([3]; 2.5 hours in the presence of serum): dose-dependent increase in mRNA transcription of the target gene | Total RNA in ng/μL (mean ± St. Dev) ([3]; Table 14.1, 2.5 hours, shuttle 1 μM, HOXB4-WT 0 μM (alone)): 252 ± 10.7 ng/µL | Total RNA in ng/μL (mean ± St. Dev) ([3]; Table 14.2, shuttle 0.8 μM, HOXB4-WT 0 μM (alone), exposure 2.5 h): 184 ± 6.0 ng/µL | Total RNA in ng/μL (mean ± St. Dev) ([3]; Table 14.3, shuttle 0 μM, HOXB4-WT 0.3 μM (alone), exposure 2.5 h): 260 ± 7.1 ng/µL | Total RNA in ng/μL (mean ± St. Dev) ([3]; Table 14.4, shuttle 0 μM, HOXB4-WT 1.5 μM (alone), exposure 2.5 h): 303.9 ± 7.6 ng/µL
